How the values were obtained:
PD-L1 mRNA [1] = experiment: Activity evaluation A in human PD-L1 model mice (liver PD-L1 mRNA, qPCR); format: in vivo; conditions: liver tissue, 10 mg/kg subcutaneous single dose, 14 days after treatment, vs PBS group
Description: (§1) Male human PD-L1 mice (purchased from Shanghai Model Organisms Center, Inc.) aged 6-8 weeks were randomized by weight, with 3 mice in each group. The groups were designated as a PBS group and various sample groups (dsRNA ligand conjugate of the present application).
(§2) Each sample group (dsRNA ligand conjugate of the present application) received a 1 mg/mL solution prepared in 1× PBS (pH 7.4).
Each mouse in the PBS group was subcutaneously injected with 10 mL/kg body weight of 1× PBS (pH 7.4), and each mouse in the sample groups (dsRNA ligand conjugate of the present application) was subcutaneously injected with the corresponding solution prepared as described above. The administration volume for each animal was 10 mL/kg body weight, and the administration dose was 10 mg/kg body weight. The day of the first dose was designated as day 0. All mice were sacrificed 14 days after the treatment, and the liver was collected and preserved in 1.5 mL sterile EP tubes containing 1 mL of animal tissue RNA stabilizing solution (Shanghai Beyotime Biotech Inc., Cat. No. R0118). After being preserved in a refrigerator at 4 °C for 24 h, the liver was transferred to -80 °C for storage. […]
For each reverse transcription reaction system, the cDNA-containing solution described above was taken as the qPCR template, and 20 µL of the qPCR reaction system was prepared using the reagent provided by the ChamQ SYBRqPCR Master Mix kit (Vazyme Biotech Co., Ltd., Cat. No. Q311). […] The qPCR reaction system was placed on a LightCycler 480 fluorescent quantitative PCR system and amplified using the three-step method. […] The real-time fluorescent quantitative PCR system separately acquired the dissolution curves of the target gene PD-L1 and the internal reference gene GAPDH in the PCR amplification products to give the Ct values of the target gene PD-L1 and the internal reference gene GAPDH. […]

PD-L1 mRNA [2] = experiment: Activity evaluation B in human PD-L1 model mice (liver PD-L1 mRNA, qPCR); format: in vivo; conditions: liver tissue, 10 mg/kg subcutaneous; for PD-L1 expression inhibition rate (%), Day 14 after treatment, Avg: day 14, vs PBS group; for PD-L1 expression inhibition rate (%), Day 28 after treatment, Avg: day 28, vs PBS group
Description: as §1, §2
Each mouse in the PBS group was subcutaneously injected with 10 mL/kg body weight of 1× PBS (pH 7.4), and each mouse in the sample groups (dsRNA ligand conjugate of the present application) was subcutaneously injected with the corresponding solution prepared as described above. The administration volume for each animal was 10 mL/kg body weight, and the administration dose was 10 mg/kg body weight. The day of the first dose was designated as day 0. The liver was collected on days 14 and 28 after the treatment and preserved in 1.5 mL sterile EP tubes containing 1 mL of animal tissue RNA stabilizing solution (Shanghai Beyotime Biotech Inc., Cat. No. R0118). After being preserved in a refrigerator at 4 °C for 24 h, the liver was transferred to -80 °C for storage. Then, the liver tissue of each mouse was homogenized using a tissue homogenizer, and the total RNA of the liver tissue of each mouse was separately extracted using the TaKaRa MiniBEST Universal RNA Extraction Kit (TAKARA, Cat. No. 9767) according to the procedures for total RNA extraction in the instructions.
The procedures of reverse transcription to synthesize cDNA and fluorescence quantitative PCR, the primers, and the calculation of inhibition rate are shown in Experimental Example 3.

Substance | PD-L1 expression inhibition rate (%), Avg (PD-L1 mRNA [1]) [%] | PD-L1 expression inhibition rate (%), Day 14 after treatment, Avg (PD-L1 mRNA [2]) [%] | PD-L1 expression inhibition rate (%), Day 28 after treatment, Avg (PD-L1 mRNA [2]) [%]
M01L01: dsRNA ligand conjugate; modified sense SEQ ID NO 31 with L01 ligand (GalNAc), antisense SEQ ID NO 32 (sense AGCAATATGACAATTGAATGA; antisense TCATTCAATTGTCATATTGCTAC; 2'-O-methyl and 2'-fluoro modified, full pattern not given here, GalNAc L01 on sense) | 59.3 |  | 
M02L01: dsRNA ligand conjugate; modified sense SEQ ID NO 33 with L01 ligand (GalNAc), antisense SEQ ID NO 34 (sense ATTTACTGTCACGGTTCCCAA; antisense TTGGGAACCGTGACAGTAATAGC; 2'-O-methyl and 2'-fluoro modified, full pattern not given here, GalNAc L01 on sense) | 67.1 |  | 
M03L01: dsRNA ligand conjugate; modified sense SEQ ID NO 35 with L01 ligand (GalNAc), antisense SEQ ID NO 36 (sense CTATTTATTTTGAGTCTGT; antisense ACAGACTCAAAATAAATAGGA; 2'-O-methyl and 2'-fluoro modified, full pattern not given here, GalNAc L01 on sense) | 78.2 |  | 
M07L01: dsRNA ligand conjugate; modified sense SEQ ID NO 43 with L01 ligand (GalNAc), antisense SEQ ID NO 44 (sense AATGAAAGGACTCACTTGGTA; antisense TACCAAGTGAGTCCTTTCATTTG; 2'-O-methyl and 2'-fluoro modified, full pattern not given here, GalNAc L01 on sense) |  | 49.0 | 
M08L01: dsRNA ligand conjugate; modified sense SEQ ID NO 45 with L01 ligand (GalNAc), antisense SEQ ID NO 46 (sense GCTGCATGATCAGCTATGGTA; antisense TACCATAGCTGATCATGCAGCGG; 2'-O-methyl and 2'-fluoro modified, full pattern not given here, GalNAc L01 on sense) |  | 26.7 | 
M10L01: dsRNA ligand conjugate; modified sense SEQ ID NO 49 with L01 ligand (GalNAc), antisense SEQ ID NO 50 (sense ATTGGTCATCCCAGAACTACA; antisense TGTAGTTCTGGGATGACCAATTC; 2'-O-methyl and 2'-fluoro modified, full pattern not given here, GalNAc L01 on sense) |  | 64.6 | 47.0
M11L01: dsRNA ligand conjugate; modified sense SEQ ID NO 51 with L01 ligand (GalNAc), antisense SEQ ID NO 52 (sense TATTTATTTTGAGTCTGTG; antisense CACAGACTCAAAATAAATAGG; 2'-O-methyl and 2'-fluoro modified, full pattern not given here, GalNAc L01 on sense) |  | 66.7 | 39.2
M12L01: dsRNA ligand conjugate; modified sense SEQ ID NO 55 with L01 ligand (GalNAc), antisense SEQ ID NO 56 (sense ATTTACTGTCACGGTTCCCAA; antisense TTGGGAACCGTGACAGTAAATGC; 2'-O-methyl and 2'-fluoro modified, full pattern not given here, GalNAc L01 on sense) |  | 78.6 | 50
